Legend:
[1] = Plasma pharmacokinetics, bi-weekly/weekly subcutaneous dosing (TOX7345)
Description: (§2) For bi-weekly dosing treatment (TOX 7345), a group of 3 male and 3 female Cynomolgus monkeys were dosed for 4 cycles.
(§3) The test substance and vehicle were freshly prepared on the day of use.
(§4) For each study, the values of the time to maximum plasma concentration (Tmax), the maximum plasma concentration (Cmax) were determined by visual inspection of the data. The area-under-the plasma-concentration-time curve (AUC) was estimated by the linear trapezoidal rule. Plasma samples were analyzed using a validated LC/MS/MS method with a lower quantification limit of about 0.5 ng/ml.

in vivo = details: both, cynomolgus monkey, plasma
Description: as §2, §3, §4

[2] = Toxicological screening, bi-weekly/weekly subcutaneous dosing (TOX7345)
Description: For each study group, the following toxicological screening was performed: mortality, body weight, food consumption, clinical observations, ophthalmology, electrocardiography, hematology, serum biochemistry, urinalysis, injection site evaluations (erythema and edema), neurological examinations, histology, and peripheral neuropathy.

[3] = test system: 20S proteasome (chymotryptic activity) in whole blood; test: 20S proteasome inhibition in whole blood, daily (5/7 days) dosing (TOX8394); format: in vivo, Cynomolgus monkeys
Description: (§1) For each study, the 20S proteasome activity in whole blood was determined, as described in Lightcap, Clin. Chem., 46:673 (2000). The chymotryptic activity was assayed by measuring the rate at which the proteasome hydrolyzed an amide bond in a small fluorescence tagged polypeptide substrate. The specific activity (Spa) was normalized to the amount of protein present in the lysate.

[4] = test system: 20S proteasome (chymotryptic activity) in whole blood; test: 20S proteasome inhibition in whole blood, bi-weekly/weekly dosing (TOX7345); format: in vivo, Cynomolgus monkeys
Description: as §1

[5] = day 32, 0.075 mg/kg sc bi-weekly
[6] = day 74, 0.075 mg/kg sc bi-weekly
[7] = both, cynomolgus monkey, in vivo
[8] = cynomolgus monkey, in vivo, 0.1 mg/kg
[9] = day 3, 0.0166 mg/kg sc daily (5/7 days)
[10] = day 3, 0.0333 mg/kg sc daily (5/7 days)
[11] = day 3, 0.05 mg/kg sc daily (5/7 days)
[12] = day 54, 0.0166 mg/kg sc daily (5/7 days)
[13] = day 54, 0.0333 mg/kg sc daily (5/7 days)
[14] = day 54, 0.05 mg/kg sc daily (5/7 days)

CC(C)C[C@H](NC(=O)[C@H](Cc1ccccc1)NC(=O)c1cnccn1)B(O)O [bortezomib] showed an AUC0-72 h ([1]; day 1, 0.075 mg/kg sc bi-weekly) of 36.7 ng·h/mL, an AUC0-72 h ([1]; day 1, 0.1 mg/kg sc bi-weekly) of 77.5 ng·h/mL and an AUC0-72 h [1, 5] of 110 ng·h/mL. It also gave a Cmax [1, 5] of 58.8 ng/mL, a Tmax [1, 5] of 15 min and an AUC0-72 h ([1]; day 32, 0.1 mg/kg sc bi-weekly) of 227 ng·h/mL. It also gave a Tmax ([1]; day 32, 0.1 mg/kg sc bi-weekly) of 7.14 min, an AUC0-72 h ([1]; day 50, 0.166 mg/kg sc weekly) of 205 ng·h/mL and a Cmax ([1]; day 50, 0.166 mg/kg sc weekly) of 168 ng/mL. The AUC0-72 h [1, 6] was 122 ng·h/mL, the Cmax [1, 6] was 70.1 ng/mL and the Tmax [1, 6] was 8.34 min. For the same molecule, the AUC0-72 h ([1]; day 74, 0.1 mg/kg sc bi-weekly) was 211 ng·h/mL, the Cmax ([1]; day 74, 0.1 mg/kg sc bi-weekly) was 113 ng/mL and the Tmax ([1]; day 74, 0.1 mg/kg sc bi-weekly) was 9.66 min. The AUC(0-t) (in vivo; Cynomolgus, sc, 0.166 mg/kg) was 229 ng·h/mL, the Cmax (in vivo; Cynomolgus, sc, 0.166 mg/kg) was 158 ng/mL and the Tmax (in vivo; Cynomolgus, sc, 0.166 mg/kg) was 13.8 min. It also gave a Tmax (in vivo; Cynomolgus, subcutaneous) of at most 15 min, a Cmax (in vivo; sc, 0.075 mg/kg) of 61.1 ng/mL and a Cmax (in vivo; sc, 0.1 mg/kg) of 86.2 ng/mL. For the same molecule, the Tmax (in vivo; sc, 0.1 mg/kg) was 7.02 min, the AUC(0-t) (in vivo; sc, 0.166 mg/kg) was 160 ng·h/mL and the Cmax (in vivo; sc, 0.166 mg/kg) was 144 ng/mL. The Tmax (in vivo; sc, 0.166 mg/kg) was 7.02 min, the Mortality ([2]; 0.166 mg/kg weekly, considered treatment related) was 1 F (day 72), 1 M (day 79), at and the MTD at 4 cycles [2, 7] was about 0.1 mg/kg. The “Peripheral neuropathy: focal axonal neurofiber degeneration, spinal cord (dorsal root ganglia)” value [2, 7] was 0.1/0.166 (weekly) mg/kg minimal, the Body weight ([2]; cynomolgus monkey, in vivo) was “No body weight loss at other dose” and the Electrocardiography ([2]; cynomolgus monkey, in vivo) was “No abnormalities found at any”. For the same molecule, the Haemathology ([2]; cynomolgus monkey, in vivo) was “No hematological changes related”, the “Histology: PANCREAS” value ([2]; cynomolgus monkey, in vivo) was “PANCREAS: no findings” and the “Histology: PROSTATE” value ([2]; cynomolgus monkey, in vivo) was “PROSTATE: no findings”. For the same molecule, the Ophthalmology ([2]; cynomolgus monkey, in vivo) was “No treatment related changes”, the Urinalysis ([2]; cynomolgus monkey, in vivo) was “No treatment related findings” and the “Histology: LYMPH NODES” value [2, 8] was “LYMPH NODES: lymphoid atrophy”. The “Histology: SPLEEN” value [2, 8] was “SPLEEN: pulp, lymphoid atrophy”, the Mortality ([2]; other dose levels (0.075, 0.1 mg/kg bi-weekly)) was “No mortality at other dose levels” and the “cumulative AUE (over 1 week), daily schedule higher than bi-weekly” value ([3]; 0.05 mg/kg daily vs 0.1 mg/kg bi-weekly) was “about 50%”. For the same molecule, the AUE0-24 h ([3]; about 0.6 mg/m^2 once daily) was 900 %. h, the “remaining 20S proteasome inhibition at the end of each 2-day drug-holiday” value ([3]; activity determined on various days before dosing) was “no indication for remaining 20S proteasome inhibition” and the “highest inhibition (Emax)” value ([3]; daily schedule, 0.05 mg/kg) was 73%. The “cumulative weekly AUE” value ([3]; daily schedule, about 0.6 mg/m^2) was 4500 %. h, the AUE0-24 h [3, 9] was 603 (77) % Inhibition · time and the “Emax (% proteasome inhibition)” value [3, 9] was 48%. For the same molecule, the “Tmax (time of occurrence of Emax)” value [3, 9] was 30 min, the AUE0-24 h [3, 10] was 685 (32) % Inhibition · time and the “Emax (% proteasome inhibition)” value [3, 10] was 58%. The “Tmax (time of occurrence of Emax)” value [3, 10] was 30 min, the AUE0-24 h [3, 11] was 802 (67) % Inhibition · time and the “Emax (% proteasome inhibition)” value [3, 11] was 65%. For the same molecule, the “Tmax (time of occurrence of Emax)” value [3, 11] was 30 min, the AUE0-24 h [3, 12] was 481 (103) % Inhibition · time and the “Emax (% proteasome inhibition)” value [3, 12] was 38%. The “Tmax (time of occurrence of Emax)” value [3, 12] was 30 min, the AUE0-24 h [3, 13] was 895 (125) % Inhibition · time and the “Emax (% proteasome inhibition)” value [3, 13] was 62%. The “Tmax (time of occurrence of Emax)” value [3, 13] was 30 min, the AUE0-24 h [3, 14] was 1039 (114) % Inhibition · time and the “Emax (% proteasome inhibition)” value [3, 14] was 73%. The “Tmax (time of occurrence of Emax)” value [3, 14] was 30 min, the “time of maximal proteasome inhibition after dosing” value ([3]; on average, sc administration) was “about 0.5 h” and the AUE0-72h ([4]; about 1.2 mg/m^2 bi-weekly) was 1500 %. h. The “strongest inhibition (Emax)” value ([4]; bi-weekly regimen, 0.1 mg/kg) was 74% and the “cumulative weekly AUE” value ([4]; bi-weekly schedule, about 1.2 mg/m^2) was 3000 %. h.

Source: patent publication US20110189204A1, “Treatment of Disease with Proteasone Inhibitors” (priority 2009, published 2011)
